Reference: patent US20260070945A1, “MACROCYCLIC IMMUNOMODULATORS” (Bristol-Myers Squibb Company, priority 2022, published 2026)
*1 amine or outer side, *2 acyl side, *3 side chain or, on linkers, in order; H or OH if unused. Where a SMILES comes first, the peptide text is derived from it. Bridges are numbered along the chain shown (N, C = ends). [ ]: non-standard residue; d: D form. The star is where a group is joined. ξ: configuration not given here. Phe(4-COOH) = N[C@@H](Cc1ccc(C(=O)O)cc1)C(=O)O; Bip = N[C@@H](Cc1ccc(-c2ccccc2)cc1)C(=O)O; Phe(3-Me) = Cc1cccc(C[C@H](N)C(=O)O)c1; NMeAEEA = CN(CCOCCOCC(=O)[*:2])[*:1]; Cha = N[C@@H](CC1CCCCC1)C(=O)O; Cit = NC(=O)NCCC[C@H](N)C(=O)O; NMeN = CN[C@@H](CC(N)=O)C(=O)O; Thr(3ξ) = CC(O)[C@H](N)C(=O)O; 12Ado = NCCCCCCCCCCCC(=O)O; hSer = N[C@@H](CCO)C(=O)O; Carboxymethyl = O=C(O)C*; NMeA = CN[C@@H](C)C(=O)O; Aun = NCCCCCCCCCCC(=O)O; Dab = NCC[C@H](N)C(=O)O; Dap = NC[C@H](N)C(=O)O; AEEA = NCCOCCOCC(=O)O

biological target: T1, PD-1/PD-L1 interaction (PE-labeled human PD-L1-Ig binding to Jurkat cell line over-expressing human PD-1) (Homo sapiens, UniProt Q15116); test: Jurkat-PD-1 Cell Binding High-Content Screening Assay (CBA); details: Jurkat-hPD-1 cells, PE-labeled PD-L1-Ig 20 nM final; read-out: Jurkat HPD1 PDL1 IC50
T1 construct: expressed in transfected cells; host or cells: Jurkat
How it was run: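 Compound is added first to the PD-1-expressing Jurkat cells and held 2 h at 37 °C in serum-containing DMEM. The fluorescent PD-L1 fusion follows at 20 nM final for 1 h. Fixed, Hoechst-stained cells are then imaged for bound label.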

T1 sequence (Q15116 25-288): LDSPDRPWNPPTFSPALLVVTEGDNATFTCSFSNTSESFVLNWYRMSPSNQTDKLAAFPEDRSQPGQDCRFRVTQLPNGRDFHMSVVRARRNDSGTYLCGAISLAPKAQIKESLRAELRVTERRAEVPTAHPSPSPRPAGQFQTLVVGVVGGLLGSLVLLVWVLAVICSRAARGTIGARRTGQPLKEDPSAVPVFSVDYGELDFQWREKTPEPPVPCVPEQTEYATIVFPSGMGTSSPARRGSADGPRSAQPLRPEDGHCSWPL

Row | Structure (SMILES) | IC50 [nM]
1 | Cc1cccc(C[C@@H]2NC(=O)[C@H](CC(=O)O)NC(=O)[C@H](Cc3ccc(OCC(=O)O)cc3)NC(=O)[C@H](C(C)O)NC(=O)CSC[C@@H](C(=O)N(C)CCOCCOCC(=O)NCCCCCCCCCCC(=O)O)NC(=O)[C@H](C(C)O)NC(=O)[C@H](C(C)C)NC(=O)[C@H](CC3CCCCC3)NC(=O)[C@H](CCN)NC(=O)[C@@H](CC(C)C)NC(=O)[C@H](C)N(C)C(=O)[C@H](C(C)C)NC(=O)[C@H](Cc3ccc(-c4ccccc4)cc3)NC(=O)[C@H](C(C)C)NC2=O)c1 (stereo partly drawn) [Example 2363] ({CH2CO}-[Thr(3ξ)]Y(Carboxymethyl)D[Phe(3-Me)]V[Bip]V[NMeA][dL][Dab][Cha]V[Thr(3ξ)]C[NMeAEEA][Aun]-OH; thioether N-14) | 21.9
2 | Cc1cccc(C[C@@H]2NC(=O)[C@H](CC(=O)O)NC(=O)[C@H](Cc3ccc(OCC(=O)O)cc3)NC(=O)[C@H](C(C)O)NC(=O)CSC[C@@H](C(=O)N(C)CCOCCOCC(=O)NCCCCCCCCCCC(=O)O)NC(=O)[C@H](CCO)NC(=O)[C@H](C(C)C)NC(=O)[C@H](CC3CCCCC3)NC(=O)[C@H](CCN)NC(=O)[C@@H](CC(C)C)NC(=O)[C@H](C)N(C)C(=O)[C@H](C(C)C)NC(=O)[C@H](Cc3ccc(-c4ccccc4)cc3)NC(=O)[C@H](C(C)C)NC2=O)c1 (stereo partly drawn) [Example 2364] ({CH2CO}-[Thr(3ξ)]Y(Carboxymethyl)D[Phe(3-Me)]V[Bip]V[NMeA][dL][Dab][Cha]V[hSer]C[NMeAEEA][Aun]-OH; thioether N-14) | 36.3
3 | Cc1cccc(C[C@@H]2NC(=O)[C@H](CC(=O)O)NC(=O)[C@H](Cc3ccc(C(=O)O)cc3)NC(=O)[C@H](Cc3ccc(OCC(=O)O)cc3)NC(=O)CSC[C@@H](C(=O)NCCOCCOCC(=O)NCCCCCCCCCCCC(=O)O)NC(=O)[C@H](CCCCN)NC(=O)[C@H](C(C)C)NC(=O)[C@H](CC3CCCCC3)NC(=O)[C@H](Cc3cnc[nH]3)NC(=O)[C@@H](CC(C)C)NC(=O)[C@H](C)N(C)C(=O)[C@H](CCCNC(N)=O)NC(=O)[C@H](Cc3ccc(-c4ccccc4)cc3)NC(=O)[C@H](C(C)C)NC2=O)c1 [Example 2367] ({CH2CO}-Y(Carboxymethyl)[Phe(4-COOH)]D[Phe(3-Me)]V[Bip][Cit][NMeA][dL]H[Cha]VKC[AEEA][12Ado]-OH; thioether N-14) | 67.1
4 | Cc1cccc(C[C@@H]2NC(=O)[C@H](CC(=O)O)NC(=O)[C@H](Cc3ccc(OCC(=O)O)cc3)NC(=O)[C@H](CCCNC(=N)N)NC(=O)CSC[C@@H](C(=O)N[C@@H](CCN)C(=O)NCCCCCCCCCCC(=O)O)NC(=O)[C@H](C(C)O)NC(=O)[C@H](CO)NC(=O)[C@H](CC3CCCCC3)NC(=O)[C@H](CCN)NC(=O)[C@@H](CC(C)C)NC(=O)[C@H](C)N(C)C(=O)[C@H](Cc3ccc(OCC(=O)O)cc3)NC(=O)[C@H](Cc3ccc(-c4ccccc4)cc3)NC(=O)[C@H](Cc3ccc(OCC(=O)O)cc3)NC2=O)c1 (stereo partly drawn) [Example 2370] ({CH2CO}-RY(Carboxymethyl)D[Phe(3-Me)]Y(Carboxymethyl)[Bip]Y(Carboxymethyl)[NMeA][dL][Dab][Cha]S[Thr(3ξ)]C[Dab][Aun]-OH; thioether N-14) | 35.8
5 | CC(=O)NCCCC[C@@H]1NC(=O)[C@H](Cc2ccc(-c3ccccc3)cc2)NC(=O)[C@H](C(C)C)NC(=O)[C@H](Cc2cccc(C)c2)NC(=O)[C@H](CC(=O)O)NC(=O)[C@H](Cc2ccc(OCC(=O)O)cc2)NC(=O)[C@H](Cc2ccc(OCC(=O)O)cc2)NC(=O)CSC[C@@H](C(=O)N[C@@H](CCN)C(=O)NCCCCCCCCCCC(=O)O)NC(=O)[C@H](CO)NC(=O)[C@H](C(C)O)NC(=O)[C@H](CC2CCCCC2)NC(=O)[C@H](CCN)NC(=O)[C@@H](CC(C)C)NC(=O)[C@H](C)N(C)C1=O (stereo partly drawn) [Example 2371] ({CH2CO}-Y(Carboxymethyl)Y(Carboxymethyl)D[Phe(3-Me)]V[Bip]K(Ac)[NMeA][dL][Dab][Cha][Thr(3ξ)]SC[Dab][Aun]-OH; thioether N-14) | 26.8
6 | Cc1cccc(C[C@@H]2NC(=O)[C@H](CC(=O)O)NC(=O)[C@H](Cc3ccc(OCC(=O)O)cc3)NC(=O)[C@H](Cc3ccc(OCC(=O)O)cc3)NC(=O)CSC[C@@H](C(=O)N[C@@H](CCCCN)C(=O)NCCCCCCCCCCC(=O)O)NC(=O)[C@H](CN)NC(=O)[C@H](C(C)C)NC(=O)[C@H](CC3CCCCC3)NC(=O)[C@H](CCN)NC(=O)[C@@H](CC(C)C)NC(=O)[C@H](C)N(C)C(=O)[C@H](C(C)C)NC(=O)[C@H](Cc3ccc(-c4ccccc4)cc3)NC(=O)[C@H](C(C)C)NC2=O)c1 [Example 2376] ({CH2CO}-Y(Carboxymethyl)Y(Carboxymethyl)D[Phe(3-Me)]V[Bip]V[NMeA][dL][Dab][Cha]V[Dap]CK[Aun]-OH; thioether N-14) | 20.9
7 | CC(=O)NCCCC[C@@H]1NC(=O)[C@H](Cc2ccc(-c3ccccc3)cc2)NC(=O)[C@H](Cc2ccc(O)cc2)NC(=O)[C@H](Cc2cccc(C)c2)NC(=O)[C@H](CC(=O)O)NC(=O)[C@H](Cc2ccc(OCC(=O)O)cc2)NC(=O)[C@H](Cc2ccc(OCC(=O)O)cc2)NC(=O)CSC[C@@H](C(=O)NCCCCCCCCCCC(=O)O)NC(=O)[C@H](C(C)O)NC(=O)[C@H](C(C)C)NC(=O)[C@H](CC2CCCCC2)NC(=O)[C@H](CCN)NC(=O)[C@@H](CC(C)C)NC(=O)[C@H](C)N(C)C1=O (stereo partly drawn) [Example 2379] ({CH2CO}-Y(Carboxymethyl)Y(Carboxymethyl)D[Phe(3-Me)]Y[Bip]K(Ac)[NMeA][dL][Dab][Cha]V[Thr(3ξ)]C[Aun]-OH; thioether N-14) | 38.9
8 | CC(=O)NCCCC[C@@H]1NC(=O)[C@H](Cc2ccc(-c3ccccc3)cc2)NC(=O)[C@H](C(C)C)NC(=O)[C@H](Cc2cccc(C)c2)NC(=O)[C@H](CC(=O)O)NC(=O)[C@H](Cc2ccc(OCC(=O)O)cc2)NC(=O)[C@H](CCCNC(=N)N)NC(=O)CSC[C@@H](C(=O)N[C@@H](CCN)C(=O)NCCCCCCCCCCC(=O)O)NC(=O)[C@H](C(C)O)NC(=O)[C@H](C(C)C)NC(=O)[C@H](CC2CCCCC2)NC(=O)[C@H](CCN)NC(=O)[C@@H](CC(C)C)NC(=O)[C@H](C)N(C)C1=O (stereo partly drawn) [Example 2380] ({CH2CO}-RY(Carboxymethyl)D[Phe(3-Me)]V[Bip]K(Ac)[NMeA][dL][Dab][Cha]V[Thr(3ξ)]C[Dab][Aun]-OH; thioether N-14) | 14.6
9 | Cc1cccc(C[C@@H]2NC(=O)[C@H](CC(=O)O)NC(=O)[C@H](Cc3ccc(OCC(=O)O)cc3)NC(=O)[C@H](CCCNC(=N)N)NC(=O)CSC[C@@H](C(=O)N(C)[C@@H](CC(N)=O)C(=O)NCCCCCCCCCCC(=O)O)NC(=O)[C@H](C(C)O)NC(=O)[C@H](C(C)C)NC(=O)[C@H](CC3CCCCC3)NC(=O)[C@H](CCN)NC(=O)[C@@H](CC(C)C)NC(=O)[C@H](C)N(C)C(=O)[C@H](C(C)C)NC(=O)[C@H](Cc3ccc(-c4ccccc4)cc3)NC(=O)[C@H](C(C)C)NC2=O)c1 (stereo partly drawn) [Example 2381] ({CH2CO}-RY(Carboxymethyl)D[Phe(3-Me)]V[Bip]V[NMeA][dL][Dab][Cha]V[Thr(3ξ)]C[NMeN][Aun]-OH; thioether N-14) | 33.8
10 | Cc1cccc(C[C@@H]2NC(=O)[C@H](CC(=O)O)NC(=O)[C@H](Cc3ccc(OCC(=O)O)cc3)NC(=O)[C@H](Cc3ccc(OCC(=O)O)cc3)NC(=O)CSC[C@@H](C(=O)N[C@@H](CO)C(=O)NCCCCCCCCCCC(=O)O)NC(=O)[C@H](C(C)O)NC(=O)[C@H](C(C)O)NC(=O)[C@H](CC3CCCCC3)NC(=O)[C@H](CCN)NC(=O)[C@@H](CC(C)C)NC(=O)[C@H](C)N(C)C(=O)[C@H](CCCNC(=N)N)NC(=O)[C@H](Cc3ccc(-c4ccccc4)cc3)NC(=O)[C@H](C(C)C)NC2=O)c1 (stereo partly drawn) [Example 2383] ({CH2CO}-Y(Carboxymethyl)Y(Carboxymethyl)D[Phe(3-Me)]V[Bip]R[NMeA][dL][Dab][Cha][Thr(3ξ)][Thr(3ξ)]CS[Aun]-OH; thioether N-14) | 15.3
11 | Cc1cccc(C[C@@H]2NC(=O)[C@H](CC(=O)O)NC(=O)[C@H](Cc3ccc(OCC(=O)O)cc3)NC(=O)[C@H](Cc3ccc(OCC(=O)O)cc3)NC(=O)CSC[C@@H](C(=O)N[C@@H](CO)C(=O)NCCCCCCCCCCC(=O)O)NC(=O)[C@H](C(C)O)NC(=O)[C@H](CN)NC(=O)[C@H](CC3CCCCC3)NC(=O)[C@H](CCN)NC(=O)[C@@H](CC(C)C)NC(=O)[C@H](C)N(C)C(=O)[C@H](CCCNC(=N)N)NC(=O)[C@H](Cc3ccc(-c4ccccc4)cc3)NC(=O)[C@H](C(C)C)NC2=O)c1 (stereo partly drawn) [Example 2384] ({CH2CO}-Y(Carboxymethyl)Y(Carboxymethyl)D[Phe(3-Me)]V[Bip]R[NMeA][dL][Dab][Cha][Dap][Thr(3ξ)]CS[Aun]-OH; thioether N-14) | 37.1
12 | CC(=O)NCCCC[C@@H]1NC(=O)[C@H](Cc2ccc(-c3ccccc3)cc2)NC(=O)[C@H](C(C)C)NC(=O)[C@H](Cc2cccc(C)c2)NC(=O)[C@H](CC(=O)O)NC(=O)[C@H](Cc2ccc(OCC(=O)O)cc2)NC(=O)[C@H](CCCNC(=N)N)NC(=O)CSC[C@@H](C(=O)N[C@H](CCC(=O)O)C(=O)NCCCCCCCCCCCC(=O)O)NC(=O)[C@H](C(C)O)NC(=O)[C@H](C(C)C)NC(=O)[C@H](CC2CCCCC2)NC(=O)[C@H](CCN)NC(=O)[C@@H](CC(C)C)NC(=O)[C@H](C)N(C)C1=O (stereo partly drawn) [Example 2388] ({CH2CO}-RY(Carboxymethyl)D[Phe(3-Me)]V[Bip]K(Ac)[NMeA][dL][Dab][Cha]V[Thr(3ξ)]C[dE][12Ado]-OH; thioether N-14) | 8.3
13 | Cc1cccc(C[C@@H]2NC(=O)[C@H](CC(=O)O)NC(=O)[C@H](Cc3ccc(OCC(=O)O)cc3)NC(=O)[C@H](CCCNC(=N)N)NC(=O)CSC[C@@H](C(=O)N[C@H](CCC(=O)O)C(=O)NCCCCCCCCCCC(=O)O)NC(=O)[C@H](C(C)O)NC(=O)[C@H](C(C)C)NC(=O)[C@H](CC3CCCCC3)NC(=O)[C@H](CCN)NC(=O)[C@@H](CC(C)C)NC(=O)[C@H](C)N(C)C(=O)[C@H](CCCNC(N)=O)NC(=O)[C@H](Cc3ccc(-c4ccccc4)cc3)NC(=O)[C@H](C(C)C)NC2=O)c1 (stereo partly drawn) [Example 2392] ({CH2CO}-RY(Carboxymethyl)D[Phe(3-Me)]V[Bip][Cit][NMeA][dL][Dab][Cha]V[Thr(3ξ)]C[dE][Aun]-OH; thioether N-14) | 29.6
